Source: article PMC9352230 (ACS Omega, 2022)
“Also recorded” adds a separate entry of the source. Read-outs that look alike come from different tables or passages of the source. Each block holds one molecule with its values, some of them ahead of it.

Assays:
ENPP1 [1] = details: read-out: ENPP1 IC50, cited from earlier work
ENPP1 [2] = target: T1, ENPP1 (Homo sapiens, UniProt P22413); assay: ENPP1 enzyme inhibition assay; type: biochemical
T1 sequence (P22413 1-925): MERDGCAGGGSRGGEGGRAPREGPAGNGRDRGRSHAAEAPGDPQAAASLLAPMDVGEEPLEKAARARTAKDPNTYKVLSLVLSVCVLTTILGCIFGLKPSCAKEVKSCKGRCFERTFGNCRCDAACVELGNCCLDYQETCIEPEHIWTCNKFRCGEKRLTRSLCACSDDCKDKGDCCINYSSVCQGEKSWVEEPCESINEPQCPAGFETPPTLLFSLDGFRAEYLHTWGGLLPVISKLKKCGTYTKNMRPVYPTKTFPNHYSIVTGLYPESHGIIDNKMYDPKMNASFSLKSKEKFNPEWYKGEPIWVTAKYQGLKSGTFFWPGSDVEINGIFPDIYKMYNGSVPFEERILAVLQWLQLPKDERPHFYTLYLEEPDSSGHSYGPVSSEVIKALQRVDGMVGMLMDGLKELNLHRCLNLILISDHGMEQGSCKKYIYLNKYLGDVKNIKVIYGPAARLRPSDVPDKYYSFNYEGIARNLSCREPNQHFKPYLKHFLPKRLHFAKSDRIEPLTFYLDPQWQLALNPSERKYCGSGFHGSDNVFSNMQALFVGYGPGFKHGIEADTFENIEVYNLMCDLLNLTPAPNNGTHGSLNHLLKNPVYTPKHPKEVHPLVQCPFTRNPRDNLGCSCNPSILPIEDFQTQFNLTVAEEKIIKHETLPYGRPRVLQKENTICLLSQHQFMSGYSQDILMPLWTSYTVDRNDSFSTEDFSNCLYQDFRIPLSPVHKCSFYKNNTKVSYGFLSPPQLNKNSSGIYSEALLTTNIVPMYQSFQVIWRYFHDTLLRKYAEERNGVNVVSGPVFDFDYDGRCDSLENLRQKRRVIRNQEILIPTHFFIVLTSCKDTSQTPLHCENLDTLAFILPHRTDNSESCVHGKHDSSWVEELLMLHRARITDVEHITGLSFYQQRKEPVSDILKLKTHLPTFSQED

[3] = tested on: HEK293 (human embryonic kidney cell line); assay: MTT cytotoxicity assay, HEK293; type: cell-based; details: for inhibition at 100 µM: Homo sapiens, HEK293, 24 h, read-out: HEK293 (% inhibition ±SD)
ENPP3 [4] = target: T2, ENPP3 (Homo sapiens, UniProt O14638); assay: ENPP3 enzyme inhibition assay; type: biochemical
T2 sequence (O14638 1-875): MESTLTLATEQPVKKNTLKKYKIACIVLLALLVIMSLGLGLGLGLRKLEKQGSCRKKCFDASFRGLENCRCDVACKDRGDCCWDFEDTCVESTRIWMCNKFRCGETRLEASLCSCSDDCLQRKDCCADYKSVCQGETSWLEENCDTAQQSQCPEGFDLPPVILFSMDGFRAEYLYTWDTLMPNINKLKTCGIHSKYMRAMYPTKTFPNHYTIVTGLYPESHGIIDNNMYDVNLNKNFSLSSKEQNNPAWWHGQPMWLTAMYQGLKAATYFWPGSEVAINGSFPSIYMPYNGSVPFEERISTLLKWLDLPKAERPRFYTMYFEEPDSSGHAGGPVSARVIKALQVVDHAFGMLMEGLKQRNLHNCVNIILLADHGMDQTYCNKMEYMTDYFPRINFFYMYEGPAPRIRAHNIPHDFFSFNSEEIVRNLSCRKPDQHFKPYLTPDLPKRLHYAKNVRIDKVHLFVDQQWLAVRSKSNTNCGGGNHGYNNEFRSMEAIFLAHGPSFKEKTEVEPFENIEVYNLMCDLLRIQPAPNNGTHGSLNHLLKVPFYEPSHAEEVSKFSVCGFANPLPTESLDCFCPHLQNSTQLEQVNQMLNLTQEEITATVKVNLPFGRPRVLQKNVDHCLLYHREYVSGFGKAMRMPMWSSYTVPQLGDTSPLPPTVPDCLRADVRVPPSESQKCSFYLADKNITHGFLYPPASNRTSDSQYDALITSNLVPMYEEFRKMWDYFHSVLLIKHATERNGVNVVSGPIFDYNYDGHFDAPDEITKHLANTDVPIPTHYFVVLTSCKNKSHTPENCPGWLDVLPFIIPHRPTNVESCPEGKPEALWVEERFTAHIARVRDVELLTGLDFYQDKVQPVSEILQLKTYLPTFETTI

ENPP3 [5] = target: T2, ENPP3; assay: Enzyme kinetic study, Lineweaver-Burk plots, ENPP3; type: biochemical; details: triplicates
[6] = tested on: MCF7 (human breast cancer cell line); assay: MTT cytotoxicity assay, MCF7; type: cell-based; details: MCF7, 24 h, read-out: MCF7 (% inhibition ±SD)
ENPP1 [7] = target: T1, ENPP1; assay: Enzyme kinetic study, Lineweaver-Burk plots, ENPP1; type: biochemical; details: triplicates
[8] = tested on: HeLa (human cervical cancer cell line); assay: MTT cytotoxicity assay, HeLa; type: cell-based; details: 100 μM compound, 24 h treatment, triplicate

SMILES: Cc1ccc(S(=O)(=O)Oc2ccc(-c3sc4cc(OS(=O)(=O)c5ccc(C)cc5)ccc4c3C(=O)c3ccc(OCCN4CCCCC4)cc3)cc2)cc1 [3-(4-(2-(piperidin-1-yl)ethoxy)benzoyl)-2-(4-(tosyloxy)phenyl)benzo[b]thiophen-6-yl-4-methylbenzenesulfonate]
- IC50 (ENPP1 [1]; selective inhibition of ENPP1): 450 nM

SMILES: O=C(NS(=O)(=O)c1ccccc1)n1ccc2cccnc21 [N-(pyrrolo[2,3-b]pyridine-1-carbonyl)benzenesulfonamide]
- IC50 (ENPP1 [1]; selective inhibitor of ENPP1): 4500 ± 160 nM

- IC50 (ENPP1 [2]): 18.9 ± 0.54 µM
- IC50 (ENPP3 [4]): 380 ± 130 nM
- mode of inhibition of ENPP3 (ENPP3 [5]): competitively
SMILES: Cc1ccc(S(=O)(=O)Oc2ccc(NC(=O)C3(C)c4ccccc4-c4ccccc43)cc2)cc1 [7e, 4-(9-Methyl-9H-fluorene-9-carboxamido)phenyl 4-Methylbenzenesulfonate]
- inhibition at 100 µM [3]: 12.4 ± 1.42%
- inhibition at 100 µM [6]: 0.3 ± 0.15%

- IC50 (ENPP1 [2]): 0.23 ± 0.03 µM
- inhibition at 100 µM (ENPP3 [4]; read-out: ENPP3 % inhibition ± SD): 42.1 ± 3.43%
SMILES: CCCCc1ccc(S(=O)(=O)Oc2ccc(NC(=O)c3ccc(C)cc3)cc2)cc1 [4j, 4-(4-Methylbenzamido)phenyl 4-Butylbenzenesulfonate]
- inhibition at 100 µM [3]: 27.6 ± 2.55%
- mode of inhibition of ENPP1 (ENPP1 [7]): uncompetitive; also recorded: uncompetitively
- inhibition at 100 µM [6]: 13.3 ± 0.73%

SMILES: N.N.[Cl][Pt][Cl] [cisplatin, reference compound]
- HEK293 (% inhibition ±SD) ([3]; 100 μM compound, MTT, 24 h treatment, triplicate, normal cell line): 65.5 ± 1.48%
- HeLa cell line (% inhibition ±SD) [8]: 84.3 ± 2.72%
